# Where two headings read alike, the source gives them in different places.
# Experiments:
# [1] = in vivo; conditions: both, Kunming, mouse, ip
# Protocol: (§2) Five grades of dosages for each sample according to the results of the preliminary test, each dosage being 0.8 larger than the previous one
# (§3) During the experiment, each sample was added a small amount of Tween-80 to facilitate dissolution after the sample was weighed, and then 0.5% CMC-Na solution was gradually added to achieve the desired concentration. The experimental volume was 0.5 ml/20 g mouse.
# (§4) Single injection via intraperitoneal (i.p.) to different groups mice.
# (§5) Kunming mice were divided into different groups randomly according to their sex. The medicament was intraperitoneally administered to each group of mice according to the dosage setting. After the administration of the medicaments, mice were observed continuously for the first 2 h for any gross behavioral changes and deaths. Dead animals were dissected and examined for any possible organ damage. […] Conditions of animals died within two week were recorded. After two weeks, all survived animals were sacrificed and checked macroscopically for possible damage to the heart, liver, kidneys and so on. Viscera that had substantive pathological changes were pathologically examined.
# [2] = tested on: BGC-823; test: In vitro cytotoxicity, IC50 by MTT method, BGC-823; type: cell-based; conditions: Homo sapiens, BGC-823; BGC823, MTT; read-out: IC50
# Method in brief: (§1)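 MTT viability, 48 h exposure: cells 10^5/ml in RPMI1640 + 10% FBS, 37 °C/5% CO2; MTT 4 h, DMSO solubilisation, A490.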
# [3] = tested on: Bel-7402; test: In vitro cytotoxicity, IC50 by MTT method, Bel-7402; type: cell-based; conditions: Homo sapiens, Bel-7402; BeI7402, MTT; read-out: IC50
# Method in brief: as §1
# [4] = tested on: S180 sarcoma; conditions: S180 sarcoma; for Body weight of the animals, beginning, First time / Body weight of the animals, end, First time / Inhibition rate, First time / Weight of the tumor X ± SD, First time / Body weight of the animals, beginning, Second time / Body weight of the animals, end, Second time / Inhibition rate, Second time: ip × 10qd; for Inhibition rate (%) S180 sarcomata: comparison table 43, in vivo
# [5] = tested on: Kunming mice; conditions: for Death rate: single i.p.
# Protocol: as §2, §3, §4, §5
# [6] = tested on: NIH3T3; test: In vitro cytotoxicity, IC50 by MTT method, NIH3T3; type: cell-based; conditions: Mus musculus; NIH3T3, MTT; read-out: IC50
# Method in brief: as §1
# [7] = tested on: HepG2; test: In vitro cytotoxicity, IC50 by MTT method, HepG2; type: cell-based, human; conditions: Homo sapiens; HepG2, MTT; read-out: IC50
# Method in brief: as §1
# [8] = tested on: Hela; test: In vitro cytotoxicity, IC50 by MTT method, Hela; type: cell-based; conditions: Homo sapiens; Hela, MTT; read-out: IC50
# Method in brief: as §1
# [9] = tested on: Lovo; test: In vitro cytotoxicity, IC50 by MTT method, Lovo; type: cell-based; conditions: Homo sapiens; Lovo, MTT; read-out: IC50
# Method in brief: as §1
# [10] = tested on: Lewis lung cancer; conditions: Lewis lung cancer; for Body weight of the animals, end, First time / Body weight of the animals, end, Second time: ip × 10qd; for Inhibition rate (%) Lewis cancer: comparison table 43, in vivo;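 on all read-outs here: mice implanted subcutaneously in the axilla with Lewis lung tumor cells, treated starting the following day, killed roughly three weeks after implantation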
# [11] = tested on: PLA-801; test: In vitro cytotoxicity, IC50 by MTT method, PLA-801; type: cell-based; conditions: PLA-801, MTT; read-out: IC50
# Method in brief: as §1
# [12] = 50% male 50% female mice, 240 mg/kg
# [13] = 50% male 50% female mice, 300 mg/kg
# 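Wherever Death rate is given: acute toxicity in Kunming mice grouped by sex, one intraperitoneal dose at five graded levels in Tween-80 plus 0.5% CMC-Na, deaths monitored over two weeks.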
# 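Wherever LD50 is given: acute toxicity in Kunming mice grouped by sex, one intraperitoneal dose at five graded levels in Tween-80 plus 0.5% CMC-Na, deaths monitored over two weeks.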
# 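Wherever MTD is given: acute toxicity in Kunming mice grouped by sex, one intraperitoneal dose at five graded levels in Tween-80 plus 0.5% CMC-Na, deaths monitored over two weeks.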
# 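Wherever Sex is given: acute toxicity in Kunming mice grouped by sex, one intraperitoneal dose at five graded levels in Tween-80 plus 0.5% CMC-Na, deaths monitored over two weeks.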
compound,measurement,setting,value
"CCOC(=O)c1cc2c([nH]c3ccccc32)c(C)n1 [Compound 11, ethyl 1-methyl-β-carboline-3-carboxylate]",LD50 at 2 weeks,[1],183 mg/kg
same,IC50,[2],110 µM
same,IC50,[3],230 µM
same,"Body weight of the animals, beginning, First time",[4]; Dosage 25 (mg/ml),19.5 g
same,"Body weight of the animals, end, First time",[4]; Dosage 25 (mg/ml),26.3 g
same,"Inhibition rate, First time",[4]; Dosage 25 (mg/ml),34.74%
same,"Weight of the tumor X ± SD, First time",[4]; Dosage 25 (mg/ml),1.86 ± 0.18 g
same,"Body weight of the animals, beginning, Second time",[4]; Dosage 25 (mg/ml),20.4 g
same,"Body weight of the animals, end, Second time",[4]; Dosage 25 (mg/ml),24.2 g
same,"Inhibition rate, Second time",[4]; Dosage 25 (mg/ml),31.93%
same,"Weight of the tumor X ± SD, Second time","[4]; Dosage 25, ip × 10qd",1.94 ± 0.16 g
same,"Body weight of the animals, beginning, First time",[4]; Dosage 50 (mg/ml),19.5 g
same,"Body weight of the animals, end, First time",[4]; Dosage 50 (mg/ml),25.9 g
same,"Inhibition rate, First time",[4]; Dosage 50 (mg/ml),44.21%
same,"Weight of the tumor X ± SD, First time",[4]; Dosage 50 (mg/ml),1.59 ± 0.16 g
same,"Body weight of the animals, beginning, Second time",[4]; Dosage 50 (mg/ml),20.6 g
same,"Body weight of the animals, end, Second time",[4]; Dosage 50 (mg/ml),23.9 g
same,"Inhibition rate, Second time",[4]; Dosage 50 (mg/ml),43.16%
same,"Weight of the tumor X ± SD, Second time","[4]; Dosage 50, ip × 10qd",1.62 ± 0.38 g
same,Inhibition rate (%) S180 sarcomata,[4],44.21%
same,Death rate,[5]; [12],90
same,Death rate,[5]; [13],100
same,Death rate,"[5]; female mice, 240 mg/kg",100
same,Death rate,"[5]; female mice, 300 mg/kg",100
same,Death rate,"[5]; male mice, 240 mg/kg",80
same,Death rate,"[5]; male mice, 300 mg/kg",100
same,LD50,"[5]; mouse, in vivo, ip",159 to 211 mg/kg
same,IC50,[6],100 µM
same,IC50,[7],90 µM
same,IC50,[8],100 µM
same,IC50,[9],80 µM
same,"Body weight of the animals, end, First time",[10]; Dosage 25 (mg/ml),23.4 g
same,"Body weight of the animals, end, Second time",[10]; Dosage 25 (mg/ml),24.5 g
same,"Body weight of the animals, beginning, First time","[10]; Dosage 25, ip × 10qd",18.7 g
same,"Inhibition rate, First time","[10]; Dosage 25, ip × 10qd",29.08%
same,"Weight of the tumor X ± SD, First time","[10]; Dosage 25, ip × 10qd",1.78 ± 0.16 g
same,"Body weight of the animals, beginning, Second time","[10]; Dosage 25, ip × 10qd",19.9 g
same,"Inhibition rate, Second time","[10]; Dosage 25, ip × 10qd",33.05%
same,"Weight of the tumor X ± SD, Second time","[10]; Dosage 25, ip × 10qd",1.58 ± 0.09 g
same,"Body weight of the animals, end, First time",[10]; Dosage 50 (mg/ml),23.0 g
same,"Body weight of the animals, end, Second time",[10]; Dosage 50 (mg/ml),23.8 g
same,"Body weight of the animals, beginning, First time","[10]; Dosage 50, ip × 10qd",18.3 g
same,"Inhibition rate, First time","[10]; Dosage 50, ip × 10qd",44.22%
same,"Weight of the tumor X ± SD, First time","[10]; Dosage 50, ip × 10qd",1.40 ± 0.16 g
same,"Body weight of the animals, beginning, Second time","[10]; Dosage 50, ip × 10qd",19.8 g
same,"Inhibition rate, Second time","[10]; Dosage 50, ip × 10qd",42.8%
same,"Weight of the tumor X ± SD, Second time","[10]; Dosage 50, ip × 10qd",1.35 ± 0.14 g
same,Inhibition rate (%) Lewis cancer,[10],44.22%
same,IC50,[11],260 µM
"COC(=O)c1cc2c([nH]c3ccccc32)c(-c2ccc(O)cc2)n1 [Compound 16, methyl 1-(4-hydroxyphenyl)-β-carboline-3-carboxylate]",MTD at 2 weeks,[1],240 mg/kg
same,IC50,[2],970 µM
same,IC50,[3],1080 µM
same,Inhibition rate (%) S180 sarcomata,[4],32.96%
same,Death rate,[5]; [12],0
same,Death rate,[5]; [13],30
same,Sex,"[5]; both, Kunming, mouse, in vivo, ip, 2 weeks",240
same,Death rate,"[5]; female mice, 240 mg/kg",0
same,Death rate,"[5]; female mice, 300 mg/kg",40
same,Death rate,"[5]; male mice, 240 mg/kg",0
same,Death rate,"[5]; male mice, 300 mg/kg",20
same,IC50,[6],2180 µM
same,IC50,[7],> 5000 µM
same,IC50,[8],150 µM
same,IC50,[9],620 µM
same,Inhibition rate (%) Lewis cancer,[10],37.86%
same,IC50,[11],1020 µM

# Reference: patent publication US20090227619A1, “Harmine derivatives, intermediates used in their preparations, preparation processes and use therefo” (priority 2003, published 2009)
